From US20210198256A1, “COMPOUNDS FOR THE DEGRADATION OF BRD9 OR MTH1” (C4 Therapeutics, Inc., priority 2018, published 2021)

Biological target: T1, BRD9 (Homo sapiens, UniProt Q9H8M2)
T1 sequence (Q9H8M2 1-597): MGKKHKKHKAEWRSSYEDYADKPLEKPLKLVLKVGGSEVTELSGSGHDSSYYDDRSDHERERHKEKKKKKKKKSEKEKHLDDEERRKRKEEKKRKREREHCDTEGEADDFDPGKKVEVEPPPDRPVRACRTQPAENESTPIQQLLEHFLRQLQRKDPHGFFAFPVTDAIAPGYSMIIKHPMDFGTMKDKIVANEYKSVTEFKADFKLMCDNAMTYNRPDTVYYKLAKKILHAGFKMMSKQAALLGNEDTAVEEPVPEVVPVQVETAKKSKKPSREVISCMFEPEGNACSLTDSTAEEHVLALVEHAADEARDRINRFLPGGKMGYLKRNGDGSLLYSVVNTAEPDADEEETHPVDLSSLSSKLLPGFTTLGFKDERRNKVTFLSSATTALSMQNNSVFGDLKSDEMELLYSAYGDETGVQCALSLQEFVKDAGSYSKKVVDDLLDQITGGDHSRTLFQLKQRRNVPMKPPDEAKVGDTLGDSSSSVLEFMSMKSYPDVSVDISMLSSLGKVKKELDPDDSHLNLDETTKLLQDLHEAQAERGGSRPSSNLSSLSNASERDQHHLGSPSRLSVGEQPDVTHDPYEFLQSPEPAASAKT
Assay: HiBit Lytic Assay (HiBit DC50, BRD9 degraders of Table 1)
Format: cell-based
Conditions: 11-point half log dose response, NanoLuc signal
Protocol: Example 3. HiBit Lytic Assay
• Compound is made at 10 mM, half log dilution, 11 points. • MDR plates can also be ordered from Frontier with same format. • 1. Barcode a 384LDV plate (384-well Low Dead Volume Microplate, Labcyte LP-0200) (Echo compatible) on the left side. • 2. Transfer 13.6 μL of 10 mM compound into column 1 of LDV plate (Labcyte). • 3. Fill column 2-11 and column 23 of MDR plate with 9.30 μL of DMSO. • 4. Serial dilute 3.16 fold from column 1 to 2 by transferring 4.30 μL from column 1 to column 2, and so on to column 11. *Change tip in every dilution to prevent compound carryover effect! • 5. Seal the plate with Plate Sealer, then store the MDR plate at room temperature for short term storage and in −20° C. for long term storage.
• Cells are treated with 30 nL of each compound at 10 mM, half log dilution, 11 points with final concentration of 1000 nM or 833 nM, half log dilution, 11 points, in duplicates. Final DMSO concentration is 0.1%. • 1. Barcode the plates made on the left side and label the plates with silver marker. • 2. Dispense with the following scheme: • a. 30 nL of compound into corresponding wells in cell plates via Echo550 with “MDR32_HiBiT16_30 nL”. Top concentration will be 1000 nM. • 3. Seal the plate with Plate Sealer.
• Cells are dispensed at density specified in Cell Line Table in 384-well microplate. • 1. Culture cells to between 50-80% of confluence in sterile culture flasks of appropriate size. • 2. For Adherent Cell Lines: • a. Aspirate off growth media in culture flask, and wash off the Phenol Red media with 5 mL of 1×PBS. • b. Add 5 mL of Trypsin to the cells, incubate at 37° C. for 5 minutes. • c. Add 5 mL of growth media to the trypsinzed cells, and resuspend. • 3. Remove 10 μL of cells, and resuspend the cells with 10 μL of Trypan Blue. Insert the solution to counting chamber slide, and count the cells via cell counter. • 4. Adjust the cell concentration to specified plating density, and strain the cells with cell strainer. • 5. Dispense the cells via E1-ClipTip™ Electronic Multichannel Pipettes or Multidrop™ Combi Reagent Dispenser with Standard tube dispensing cassette: • a. Prime the cassette with 10-20 mL of ddH2O. • b. Prime the cassette with 10-20 mL of cells. • c. Dispense the cells at low speed for 30 μL/well in Corning® 384 Well Low Flange Black Flat Bottom Polystyrene TC-Treated Microplate. • d. Wash the cassette with 10-20 mL of ddH2O, follow by 10-20 mL of 70% EtOH, then again with 10-20 mL of ddH2O. • 6. Incubate the plates at 37° C.×compound treatment time.
• 1. If not already, bring Nano-Glo® HiBiT Lytic Buffer to room temperature. • 2. Determine the amount of reagent needed. A volume of reagent equal to the volume of media in the well should be added (i.e. 30 μL of cells will need 30 μL of HiBiT Lytic reagent). • 3. Into a given volume of buffer, dilute the substrate 50-fold and the LgBiT protein 100-fold. For example, to make 10 ml of reagent, add the following: • 10 ml Nano-Glo® HiBiT Lytic Buffer • 200 μl Nano-Glo® HiBiT Lytic Substrate • 100 μl LgBiT Protein • The reagent should be reconstituted immediately before use. However, once reconstituted, it should take about 4 hours for the activity to decrease 10%. • 4. Cool down the cell plate to room temperature for 10-15 minutes without lid. • 5. Dispense the HiBiT Lytic Reagent via E1-ClipTip™ Electronic Multichannel Pipettes or Multidrop™ Combi Reagent Dispenser with Standard tube dispensing cassette: • a. Prime the cassette with 10-20 mL of ddH2O. • b. Prime the cassette with 10-20 mL of CTG 2.0. • c. Dispense the HiBiT Lytic Reagent at medium speed for 30 μL/well in cell plate to column 1-23 (column 24 will be used as plate background). • d. Wash the cassette with 10-20 mL of ddH2O, follow by 10-20 mL of 70% EtOH, then again with 10-20 mL of ddH2O. • 6. Incubate the cell plate at room temperature for 10 minutes without lid. • 7. […]

DC50 [nM] | Compound
< 100 | COc1cc(-c2cn(C)c(=O)c(C)n2)cc(OC)c1CN(C)CC(=O)NCCCCCCCCNc1cccc2c1C(=O)N(C1CCC(=O)NC1=O)C2=O (stereo not shown) [Compound 225, 2-((4-(4,6-dimethyl-5-oxo-4,5-dihydropyrazin-2-yl)-2,6-dimethoxybenzyl)(methyl)amino)-N-(8-((2-(2,6-dioxopiperidin-3-yl)-1,3-dioxoisoindolin-4-yl)amino)octyl)acetamide]
< 100 | COc1cc(-c2cn(C)c(=O)c3[nH]ncc23)cc(OC)c1CNCC(=O)NCCCCCCCCCc1ccc2c(c1)C(=O)N(C1CCC(=O)NC1=O)C2=O (stereo not shown) [Compound 202, 2-[[2,6-dimethoxy-4-(6-methyl-7-oxo-1H-pyrazolo[3,4-c]pyridin-4-yl)phenyl]methylamino]-N-[9-[2-(2,6-dioxo-3-piperidyl)-1,3-dioxo-isoindolin-5-yl]nonyl]acetamide]
< 100 | COc1cc(-c2cn(C)c(=O)c3[nH]ncc23)cc(OC)c1CNCC(=O)NCCCCCNC(=O)CCc1ccc2c(c1)C(=O)N(C1CCC(=O)NC1=O)C2=O (stereo not shown) [Compound 207, N-[5-[[2-[[2,6-dimethoxy-4-(6-methyl-7-oxo-1H-pyrazolo[3,4-c]pyridin-4 yl)phenyl]methylamino]acetyl]amino]pentyl]-3-[2-(2,6-dioxo-3-piperidyl)-1,3-dioxo-isoindolin-5-yl]propanamide]
< 100 | COc1cc(-c2cn(C)c(=O)c3c2cnn3C)cc(OC)c1CN(C)CC(=O)NCCCCCCCCNc1cccc2c1C(=O)N(C1CCC(=O)NC1=O)C2=O (stereo not shown) [Compound 200, 2-[[4-(1,6-dimethyl-7-oxo-pyrazolo[3,4-c]pyridin-4-yl)-2,6-dimethoxy-phenyl]methyl-methyl-amino]-N-[8-[[2-(2,6-dioxo-3-piperidyl)-1,3-dioxo-isoindolin-4-yl]amino]octyl]acetamide]

System: SMARTCAR-MTH1-wt-HiBiT (Jurkat.7 cells)
Assay: HiBit Lytic Assay (HiBit DC50, MTH1 degraders of Table 2)
Format: cell-based, human
Conditions: Jurkat.7 SMARTCAR-MTH1-wt-HiBiT cells, compound treatment time 4 hr, 11-point half log dose response
Method in brief: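 Jurkat.7 cells expressing SMARTCAR-MTH1-wt-HiBiT were treated at 37° C with 11-point half-log dilutions (top final 1000 nM or 833 nM, duplicates, 0.1% DMSO). Remaining HiBiT-tagged protein was read by Nano-Glo HiBiT lytic luminescence, normalized to media-only and DMSO controls.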

Compound | DC50 [nM]
COc1ccc(CNc2c(C(=O)NC3CC3)cnc3cc(OC)c(-c4ccc(C(=O)NCCCCn5cc(CNc6cccc7c6C(=O)N(C6CCC(=O)NC6=O)C7=O)nn5)nc4)cc23)cc1 (stereo not shown) [Compound 395, N-cyclopropyl-6-[6-[4-[4-[[[2-(2,6-dioxo-3-piperidyl)-1,3-dioxo-isoindolin-4-yl]amino]methyl]triazol-1-yl]butylcarbamoyl]-3-pyridyl]-7-methoxy-4-[(4-methoxyphenyl)methylamino]quinoline-3-carboxamide] | < 100
CNc1c(C(=O)NC2CC2)cnc2cc(C(F)(F)F)c(-c3ccc(C(=O)NCCCCn4cc(C(C)Nc5cccc6c5C(=O)N(C5CCC(=O)NC5=O)C6=O)nn4)c(F)c3)cc12 (stereo not shown) [Compound 430, N-cyclopropyl-6-[4-[4-[4-[1-[[2-(2,6-dioxo-3-piperidyl)-1,3-dioxo-isoindolin-4-yl]amino]ethyl]triazol-1-yl]butylcarbamoyl]-3-fluoro-phenyl]-4-(methylamino)-7-(trifluoromethyl)quinoline-3-carboxamide] | < 100

More lines, now with the values ahead:

DC50 [nM] | Compound
< 1000 | CN(CC(=O)NCCCCCC(=O)N1CCC(c2ccc3ncc(C(N)=O)c(Nc4ccccc4)c3c2)CC1)c1cccc2c1C(=O)N(C1CCC(=O)NC1=O)C2=O (stereo not shown) [Compound 312, 4-anilino-6-[1-[6-[[2-[[2-(2,6-dioxo-3-piperidyl)-1,3-dioxo-isoindolin-4-yl]-methyl-amino]acetyl]amino]hexanoyl]-4-piperidyl]quinoline-3-carboxamide]
< 100 | CNC(=O)c1cnc2ccc(-c3ccc(C(=O)NCCCCNC(=O)COc4cccc5c4C(=O)N(C4CCC(=O)NC4=O)C5=O)cc3)cc2c1Nc1ccccc1 (stereo not shown) [Compound 340, 4-anilino-6-[4-[4-[[2-[2-(2,6-dioxo-3-piperidyl)-1,3-dioxo-isoindolin-4-yl]oxyacetyl]amino]butylcarbamoyl]phenyl]-N-methyl-quinoline-3-carboxamide]
< 100 | CNC(=O)c1cnc2ccc(NCCCCCCCCCCNC(=O)CNc3cccc4c3CN(C3CCC(=O)NC3=O)C4=O)cc2c1Nc1ccccc1 (stereo not shown) [Compound 441, 6-((10-(2-((2-(2,6-dioxopiperidin-3-yl)-1-oxoisoindolin-4-yl)amino)acetamido)decyl)amino)-N-methyl-4-(phenylamino)quinoline-3-carboxamide]
< 100 | CNC(=O)c1cnc2ccc(NCCCCCCCCCCNC(=O)C(C)Nc3cccc4c3C(=O)N(C3CCC(=O)NC3=O)C4=O)cc2c1Nc1ccccc1 (stereo not shown) [Compound 444, 6-((10-(2-((2-(2,6-dioxopiperidin-3-yl)-1,3-dioxoisoindolin-4-yl)amino)propanamido)decyl)amino)-N-methyl-4-(phenylamino)quinoline-3-carboxamide]
< 100 | CNC(=O)c1cnc2cc(C(F)(F)F)c(-c3ccc(C(=O)NCCCCn4cc(CNc5cccc6c5C(=O)N(C5CCC(=O)NC5=O)C6=O)nn4)nc3)cc2c1Nc1ccccc1 (stereo not shown) [Compound 386, 6-(6-((4-(4-(((2-(2,6-dioxopiperidin-3-yl)-1,3-dioxoisoindolin-4-yl)amino)methyl)-1H-1,2,3-triazol-1-yl)butyl)carbamoyl)pyridin-3-yl)-N-methyl-4-(phenylamino)-7-(trifluoromethyl)quinoline-3-carboxamide]
< 100 | CNC(=O)c1cnc2ccc(-c3ccc(C(=O)NCCCC(=O)N4CCN(c5cccc6c5C(=O)N(C5CCC(=O)NC5=O)C6=O)CC4)cc3)cc2c1Nc1ccccc1 (stereo not shown) [Compound 343, 4-anilino-6-[4-[[4-[4-[2-(2,6-dioxo-3-piperidyl)-1,3-dioxo-isoindolin-4-yl]piperazin-1-yl]-4-oxo-butyl]carbamoyl]phenyl]-N-methyl-quinoline-3-carboxamide]
< 100 | CNC(=O)c1cnc2ccc(C(=O)NCCCCCCCCNC(=O)COc3cccc4c3C(=O)N(C3CCC(=O)NC3=O)C4=O)cc2c1Nc1ccccc1 (stereo not shown) [Compound 453, N6-(8-(2-((2-(2,6-dioxopiperidin-3-yl)-1,3-dioxoisoindolin-4-yl)oxy)acetamido)octyl)-N3-methyl-4-(phenylamino)quinoline-3,6-dicarboxamide]
